Test results reported in publication PMC9090415, “Discovery of small molecule inhibitors of Plasmodium falciparum apicoplast DNA polymerase” (Journal of Enzyme Inhibition and Medicinal Chemistry, 2022).

Biological target: P. falciparum apicoplast DNA polymerase (Pf-apPOL) (Plasmodium falciparum, UniProt Q8ILY1)
Test: Fluorescence-based high-throughput DNA polymerase assay (molecular beacon), primary screen and dose-response
Type: biochemical
Procedure: The HT assay employs a molecular beacon, a stem-loop DNA template with a Cy3 dye and the Black Hole Quencher on the 3′ and 5′ ends of the DNA, respectively. Pf-apPOL concentration is based on a calculated absorptivity of ε280 = 56750 M^−1 cm^−1. Reactions were carried out at 25 °C, using Corning 3575 […] (well-volume, 20 µL). Assays testing for compound inhibition composed of reaction buffer (pH 7.9 in 50 mM potassium acetate, 20 mM Tris-acetate and 10 mM magnesium acetate), Pf-apPOL (20 nM), DNA substrate (20 nM), dNTPs (6 µM), and compound (10 µM in DMSO). The DNA and nucleotide substrates (dNTPs) were at concentrations of 20 nM and 6 µM, respectively, in the assay. Pf-apPOL was incubated in the reaction buffer with dNTPs and the compound of interest (10 µM, in the assay) at 25 °C for 10 min. The DNA substrate was then added and the reaction was allowed to proceed for 90 min at 25 °C.
Each assay plate contained 16 negative controls (no Pf-apPOL, DMSO present) and 16 positive controls (Pf-apPOL present, no DMSO). The fluorescence of each well was determined using a BioTek Synergy Neo fluorescence plate reader using excitation and emission wavelengths of 555 and 570 nm, respectively.
In the above, Min is the average of fluorescence emission of the negative controls (substrate only), Max the average fluorescence emission from the positive controls (enzyme + substrate), and Test the emission from the assays in the presence of compounds (enzyme + compound + substrates). […] […] The IC50 of each compound was determined using Equation (2): (2) IC50= Vmax/(1+ (I/IC50)^n)
In the above, n measures cooperativity, with n > 1 indicating synergistic binding of more than a single molecule of the compound.
To identify apPOL inhibitors we utilised our previously developed high-throughput DNA polymerase assay. The HT assay is based on a molecular beacon DNA template that forms a stem-loop with a Cy3 dye and the Black Hole Quencher on the 3′ and 5′ ends of the DNA, respectively. DNA polymerase activity extends an annealed primer through the stem region, displacing the fluorophore from the quencher, thereby increasing its fluorescence (Figure 1(A)). The assay accurately recapitulates the kinetic behaviour of apPOL, as measured through more conventional low-throughput gel-based assays. The Z′ factor for the assay described here was 0.9 across all plates (data not shown).
Figure 1. High-throughput screening. (A) The fluorescent-based DNA polymerase assay used to screen the compound libraries. The DNA template strand is a hairpin loop with a primer annealed to the loop. The 3’ end of the primer is 11 bases away from the 6 bp duplex. Strand displacement activity of the DNA polymerase separates the Cy3 dye from the Black hole quencher leading to an increase in fluorescent signal. (B) The high-throughput assay workflow. The DNA polymerase is incubated with […] compound for 10 min prior to addition of the hairpin substrate. The reaction is quenched at 3 different time points and the fluorescent signal is measured and % inhibition is determined using the provided equation.

Chain of P. falciparum apicoplast DNA polymerase (Pf-apPOL) (Q8ILY1 entry or part of it): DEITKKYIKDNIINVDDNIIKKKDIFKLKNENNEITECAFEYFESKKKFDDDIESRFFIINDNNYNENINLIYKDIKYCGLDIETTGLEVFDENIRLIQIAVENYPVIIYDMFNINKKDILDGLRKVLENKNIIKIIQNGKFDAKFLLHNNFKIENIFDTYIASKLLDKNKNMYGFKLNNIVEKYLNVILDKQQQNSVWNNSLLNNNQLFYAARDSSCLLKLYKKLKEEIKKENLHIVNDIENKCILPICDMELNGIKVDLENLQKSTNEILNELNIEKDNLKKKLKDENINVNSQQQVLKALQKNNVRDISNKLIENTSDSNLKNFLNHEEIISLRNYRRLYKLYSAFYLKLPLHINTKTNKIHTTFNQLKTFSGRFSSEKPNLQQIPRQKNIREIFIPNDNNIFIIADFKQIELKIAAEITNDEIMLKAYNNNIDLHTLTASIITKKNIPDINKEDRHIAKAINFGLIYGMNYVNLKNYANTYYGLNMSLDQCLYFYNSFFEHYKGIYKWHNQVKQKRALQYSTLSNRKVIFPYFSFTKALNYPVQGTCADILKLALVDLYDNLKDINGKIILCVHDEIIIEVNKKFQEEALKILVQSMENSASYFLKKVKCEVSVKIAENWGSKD

COc1ccc2c(c1)CCc1c-2nc2ccc(Br)cc2c1C(=O)O [KU0059417]
DNA Pol ('DNA Pol'; screening value, unit not given; 90 min, 10 µM): 29
% inhibition Apo pol 10' (DRC-1; 10'; concentration 2.5): 25.2919%
% inhibition Apo pol 10' (DRC-1; 10'; concentration 5): 33.9692%
% inhibition Apo pol 10' (DRC-1; 10'; concentration 10): 45.4557%
% inhibition Apo pol 10' (DRC-1; 10'; concentration 20): 55.4931%
% inhibition Apo pol 10' (DRC-1; 10'; concentration 40): 69.0477%
% inhibition Apo pol 10' (DRC-1; 10'; concentration 80): 75.6745%
% inhibition Apol 90' (DRC-1; 90'; concentration 2.5): 11.1508%
% inhibition Apol 90' (DRC-1; 90'; concentration 5): 18.7068%
% inhibition Apol 90' (DRC-1; 90'; concentration 10): 30.3823%
% inhibition Apol 90' (DRC-1; 90'; concentration 20): 41.2946%
% inhibition Apol 90' (DRC-1; 90'; concentration 40): 54.5207%
% inhibition Apol 90' (DRC-1; 90'; concentration 80): 62.4129%
% inhibition apPOL 180' (DRC-1; 180'; concentration 2.5): 3.289%
% inhibition apPOL 180' (DRC-1; 180'; concentration 5): 10.0066%
% inhibition apPOL 180' (DRC-1; 180'; concentration 10): 20.2825%
% inhibition apPOL 180' (DRC-1; 180'; concentration 20): 30.8503%
% inhibition apPOL 180' (DRC-1; 180'; concentration 40): 43.5885%
% inhibition apPOL 180' (DRC-1; 180'; concentration 80): 50.0867%
% inhibition Apo pol 5' (DRC-2, 5', concentration 2.5): 21%
% inhibition Apo pol 5' (DRC-2, 5', concentration 5): 27%
% inhibition Apo pol 5' (DRC-2, 5', concentration 10): 34%
% inhibition Apo pol 5' (DRC-2, 5', concentration 20): 40%
% inhibition Apo pol 5' (DRC-2, 5', concentration 40): 53%
% inhibition Apo pol 5' (DRC-2, 5', concentration 80): 60%
% inhibition Apol 40' (DRC-2, 40', concentration 2.5): 17%
% inhibition Apol 40' (DRC-2, 40', concentration 5): 24%
% inhibition Apol 40' (DRC-2, 40', concentration 10): 33%
% inhibition Apol 40' (DRC-2, 40', concentration 20): 39%
% inhibition Apol 40' (DRC-2, 40', concentration 40): 54%
% inhibition Apol 40' (DRC-2, 40', concentration 80): 68%
% inhibition ApPOL 90' (DRC-2, 90', concentration 2.5): 15%
% inhibition ApPOL 90' (DRC-2, 90', concentration 5): 22%
% inhibition ApPOL 90' (DRC-2, 90', concentration 10): 31%
% inhibition ApPOL 90' (DRC-2, 90', concentration 20): 37%
% inhibition ApPOL 90' (DRC-2, 90', concentration 40): 52%
% inhibition ApPOL 90' (DRC-2, 90', concentration 80): 69%
% inhibition apPOL 180' (DRC-2, 180', concentration 2.5): 7%
% inhibition apPOL 180' (DRC-2, 180', concentration 5): 13%
% inhibition apPOL 180' (DRC-2, 180', concentration 10): 20%
% inhibition apPOL 180' (DRC-2, 180', concentration 20): 25%
% inhibition apPOL 180' (DRC-2, 180', concentration 40): 42%
% inhibition apPOL 180' (DRC-2, 180', concentration 80): 64%
DNA Pol (primary screen hit value, DNA Pol (186 hits); 90 min, 10 µM): 29

COc1ccc(C(=O)Nc2cccc(-c3nc4ncccc4o3)c2)cc1[N+](=O)[O-] [KU0063313]
DNA Pol (186 hits, value of the hit list (primary screen); unit not given; 90 min, 10 µM): 31
% inhibition Apo pol 10' (DRC-1; 10'; concentration 2.5): 4.335%
% inhibition Apo pol 10' (DRC-1; 10'; concentration 5): 2.852%
% inhibition Apo pol 10' (DRC-1; 10'; concentration 10): 35.1619%
% inhibition Apo pol 10' (DRC-1; 10'; concentration 20): 59.4699%
% inhibition Apo pol 10' (DRC-1; 10'; concentration 40): 4.461%
% inhibition Apo pol 10' (DRC-1; 10'; concentration 80): 70.0671%
% inhibition Apol 90' (DRC-1; 90'; concentration 2.5): 2.478%
% inhibition Apol 90' (DRC-1; 90'; concentration 5): 4.0361%
% inhibition Apol 90' (DRC-1; 90'; concentration 10): 26.4412%
% inhibition Apol 90' (DRC-1; 90'; concentration 20): 41.4228%
% inhibition Apol 90' (DRC-1; 90'; concentration 40): 2.829%
% inhibition Apol 90' (DRC-1; 90'; concentration 80): 43.7849%
% inhibition apPOL 180' (DRC-1; 180'; concentration 2.5): -1.663%
% inhibition apPOL 180' (DRC-1; 180'; concentration 5): 2.317%
% inhibition apPOL 180' (DRC-1; 180'; concentration 10): 20.5277%
% inhibition apPOL 180' (DRC-1; 180'; concentration 20): 37.6573%
% inhibition apPOL 180' (DRC-1; 180'; concentration 40): 6.705%
% inhibition apPOL 180' (DRC-1; 180'; concentration 80): 38.9716%
% inhibition Apo pol 5' (DRC-2, 5', concentration 2.5): 0.145%
% inhibition Apo pol 5' (DRC-2, 5', concentration 5): 8%
% inhibition Apo pol 5' (DRC-2, 5', concentration 10): 16%
% inhibition Apo pol 5' (DRC-2, 5', concentration 20): 4%
% inhibition Apo pol 5' (DRC-2, 5', concentration 40): 29%
% inhibition Apo pol 5' (DRC-2, 5', concentration 80): 15%
% inhibition Apol 40' (DRC-2, 40', concentration 2.5): 0.929%
% inhibition Apol 40' (DRC-2, 40', concentration 5): 10%
% inhibition Apol 40' (DRC-2, 40', concentration 10): 18%
% inhibition Apol 40' (DRC-2, 40', concentration 20): 1.88%
% inhibition Apol 40' (DRC-2, 40', concentration 40): 61%
% inhibition Apol 40' (DRC-2, 40', concentration 80): 45%
% inhibition ApPOL 90' (DRC-2, 90', concentration 2.5): 0.838%
% inhibition ApPOL 90' (DRC-2, 90', concentration 5): 10%
% inhibition ApPOL 90' (DRC-2, 90', concentration 10): 15%
% inhibition ApPOL 90' (DRC-2, 90', concentration 20): -0.691%
% inhibition ApPOL 90' (DRC-2, 90', concentration 40): 68%
% inhibition ApPOL 90' (DRC-2, 90', concentration 80): 58%
% inhibition apPOL 180' (DRC-2, 180', concentration 2.5): -5%
% inhibition apPOL 180' (DRC-2, 180', concentration 5): 2.55%
% inhibition apPOL 180' (DRC-2, 180', concentration 10): 8%
% inhibition apPOL 180' (DRC-2, 180', concentration 20): -8%
% inhibition apPOL 180' (DRC-2, 180', concentration 40): 73%
% inhibition apPOL 180' (DRC-2, 180', concentration 80): 62%
% inhibition Apo pol 5' (DRC-2; 5'; concentration 5): 8%
% inhibition Apo pol 5' (DRC-2; 5'; concentration 80): 15%
% inhibition Apol 40' (DRC-2; 40'; concentration 5): 10%
% inhibition ApPOL 90' (DRC-2; 90'; concentration 5): 10%
% inhibition ApPOL 90' (DRC-2; 90'; concentration 10): 15%
% inhibition apPOL 180' (DRC-2; 180'; concentration 10): 8%
DNA Pol (primary screen value, 'DNA Pol' only; 90 min, 10 µM): 31
